# Measured values published in US20100292266A1, “Oxazolyl Piperidine Modulators of Fatty Acid Amide Hydrolase” (priority 2006, published 2010).
# pIC50: −log10 of the molar value.
# Biological target: T1, FAAH (Homo sapiens, UniProt O00519)
# T1 sequence (O00519 1-579): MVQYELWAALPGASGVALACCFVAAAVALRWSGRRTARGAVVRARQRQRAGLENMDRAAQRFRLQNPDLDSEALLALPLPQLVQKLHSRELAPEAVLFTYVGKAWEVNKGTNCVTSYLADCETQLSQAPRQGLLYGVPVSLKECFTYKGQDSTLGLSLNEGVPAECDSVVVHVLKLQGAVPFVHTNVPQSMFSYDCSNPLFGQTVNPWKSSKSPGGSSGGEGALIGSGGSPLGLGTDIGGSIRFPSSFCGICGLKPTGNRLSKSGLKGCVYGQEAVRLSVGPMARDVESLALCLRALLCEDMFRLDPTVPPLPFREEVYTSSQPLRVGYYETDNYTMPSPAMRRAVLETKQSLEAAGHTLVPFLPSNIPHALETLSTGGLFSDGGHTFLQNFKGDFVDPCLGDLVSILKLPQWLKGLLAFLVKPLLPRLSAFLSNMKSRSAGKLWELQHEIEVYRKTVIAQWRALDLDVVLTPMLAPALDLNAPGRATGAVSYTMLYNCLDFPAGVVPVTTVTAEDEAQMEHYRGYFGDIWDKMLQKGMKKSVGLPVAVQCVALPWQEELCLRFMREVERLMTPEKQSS
# Test: Assay Method 1: FAAH assay, 3H-anandamide hydrolysis in cell homogenate
# Type: biochemical
# Parameters: expressed in transfected cells
# Details: T84 or transfected SK-N-MC cell homogenate, 80 nM 3H-AEA, 1 h rt, > = solubility limit or highest concentration tested
# In short: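 Homogenate of SK-N-MC cells stably transfected with human FAAH, incubated with compound and 80 nM final ³H-anandamide for 1 h at rt. Released ³H-ethanolamine separated from substrate on activated charcoal and counted by scintillation. ">" values reflect solubility limit or top concentration tested.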
row,Compound,pIC50
1,"O=C(c1ncco1)C1CCN(S(=O)(=O)c2ccc3ccccc3c2)CC1 [Example 1, [1-(Naphthalene-2-sulfonyl)-piperidin-4-yl]-oxazol-2-yl-methanone]",7.00
2,"O=C(c1ncco1)C1CCN(Cc2ccc3ccc(Cl)cc3n2)CC1 [Example 76, [1-(7-Chloro-quinolin-2-ylmethyl)-piperidin-4-yl]-oxazol-2-yl-methanone]",8.52
3,"Cc1cccc(CN2CCC(C(=O)c3ncco3)CC2)n1 [Example 83, [1-(6-Methyl-pyridin-2-ylmethyl)-piperidin-4-yl]-oxazol-2-yl-methanone]",6.19
4,"O=C(c1ncco1)C1CCN(Cc2ccc(F)c(F)c2)CC1 [Example 38, [1-(3,4-Difluoro-benzyl)-piperidin-4-yl]-oxazol-2-yl-methanone]",7.52
5,"O=C(c1ncco1)C1CCN(Cc2ccc(Cl)c(Cl)c2)CC1 [Example 44, [1-(3,4-Dichloro-benzyl)-piperidin-4-yl]-oxazol-2-yl-methanone]",8.30
6,"O=C(c1ncco1)C1CCN(Cc2ccc(OC(F)(F)F)cc2)CC1 [Example 36, Oxazol-2-yl-[1-(4-trifluoromethoxy-benzyl)-piperidin-4-yl]-methanone]",7.60
7,"O=C(c1ncco1)C1CCN(Cc2ccccc2)CC1 [Example 89, (1-Benzyl-piperidin-4-yl)-oxazol-2-yl-methanone]",5.52
8,"O=C(c1ncco1)C1CCN(Cc2ccc3cccnc3n2)CC1 [Example 41, (1-[1,8]Naphthyridin-2-ylmethyl-piperidin-4-yl)-oxazol-2-yl-methanone]",6.51
9,"O=C(c1ncco1)C1CCN(Cc2cccc(Oc3ccccc3)c2)CC1 [Example 56, Oxazol-2-yl-[1-(3-phenoxy-benzyl)-piperidin-4-yl]-methanone]",7.55
10,"Cc1ccc2cc(CN3CCC(C(=O)c4ncco4)CC3)c(Cl)nc2c1 [Example 69, [1-(2-Chloro-7-methyl-quinolin-3-ylmethyl)-piperidin-4-yl]-oxazol-2-yl-methanone]",6.23
11,"COc1ccc(C(=O)N2CCC(C(=O)c3ncco3)CC2)cc1 [Example 9, [1-(4-Methoxy-benzoyl)-piperidin-4-yl]-oxazol-2-yl-methanone]",5.15
12,"O=C(c1ncco1)C1CCN(Cc2ccc3cccc(O)c3n2)CC1 [Example 79, [1-(8-Hydroxy-quinolin-2-ylmethyl)-piperidin-4-yl]-oxazol-2-yl-methanone]",7.92
13,"O=C(c1ncco1)C1CCN(Cc2cccc(F)c2)CC1 [Example 31, [1-(3-Fluoro-benzyl)-piperidin-4-yl]-oxazol-2-yl-methanone]",6.52
14,"O=C(c1ncco1)C1CCN(Cc2ccc(Br)cc2F)CC1 [Example 27, [1-(4-Bromo-2-fluoro-benzyl)-piperidin-4-yl]-oxazol-2-yl-methanone]",7.96
15,"O=C(c1ncco1)C1CCN(Cc2ccccn2)CC1 [Example 60, Oxazol-2-yl-(1-pyridin-2-ylmethyl-piperidin-4-yl)-methanone]",5.89
16,"O=C(c1ncco1)C1CCN(C(=O)c2ccc3ccccc3c2)CC1 [Example 10, [1-(Naphthalene-2-carbonyl)-piperidin-4-yl]-oxazol-2-yl-methanone]",7.55

row,Compound,pIC50
1,"O=C(c1ncco1)C1CCN(Cc2ccc(Br)c(Br)c2)CC1 [Example 87, [1-(3,4-Dibromo-benzyl)-piperidin-4-yl]-oxazol-2-yl-methanone]",8.70
2,"O=C(c1ncco1)C1CCN(Cc2ccc3cc[nH]c3c2)CC1 [Example 45, [1-(1H-Indol-6-ylmethyl)-piperidin-4-yl]-oxazol-2-yl-methanone]",6.67
3,"Cc1ccc(CN2CCC(C(=O)c3ncco3)CC2)cc1 [Example 64, [1-(4-Methyl-benzyl)-piperidin-4-yl]-oxazol-2-yl-methanone]",6.95
4,"O=C(c1ncco1)C1CCN(Cc2cc3ccccc3o2)CC1 [Example 55, (1-Benzofuran-2-ylmethyl-piperidin-4-yl)-oxazol-2-yl-methanone]",7.92
5,"Cc1cccc(CN2CCC(C(=O)c3ncco3)CC2)c1 [Example 65, [1-(3-Methyl-benzyl)-piperidin-4-yl]-oxazol-2-yl-methanone]",6.60
6,"CN(C)c1nc2ccccc2cc1CN1CCC(C(=O)c2ncco2)CC1 [Example 72, [1-(2-Dimethylamino-quinolin-3-ylmethyl)-piperidin-4-yl]-oxazol-2-yl-methanone]",7.34
7,"O=C(c1ncco1)C1CCN(Cc2ccc(F)cc2)CC1 [Example 30, [1-(4-Fluoro-benzyl)-piperidin-4-yl]-oxazol-2-yl-methanone]",6.83
8,"CC(c1cccc(C(F)(F)F)c1)N1CCC(C(=O)c2ncco2)CC1 (centres unmarked) [Example 91, Oxazol-2-yl-{1-[1-(3-trifluoromethyl-phenyl)-ethyl]-piperidin-4-yl}-methanone]",6.11
9,"O=C(c1ncco1)C1CCN(S(=O)(=O)c2cccc(Cl)c2)CC1 [Example 5, [1-(3-Chloro-benzenesulfonyl)-Diperidin-4-yl]-oxazol-2-yl-methanone]",5.10
10,"CC(C)Oc1ccc(CN2CCC(C(=O)c3ncco3)CC2)cc1 [Example 23, [1-(4-Isopropoxy-benzyl)-piperidin-4-yl]-oxazol-2-yl-methanone]",5.30
11,"Cn1c(CN2CCC(C(=O)c3ncco3)CC2)cc2ccccc21 [Example 50, [1-(1-Methyl-1H-indol-2-ylmethyl)-piperidin-4-yl]-oxazol-2-yl-methanone]",8.40
12,"Cn1ccc2ccc(CN3CCC(C(=O)c4ncco4)CC3)cc21 [Example 40, [1-(1-Methyl-1H-indol-6-ylmethyl)-piperidin-4-yl]-oxazol-2-yl-methanone]",7.03
13,"COc1ccc(CN2CCC(C(=O)c3ncco3)CC2)cc1OC [Example 43, [1-(3,4-Dimethoxy-benzyl)-piperidin-4-yl]-oxazol-2-yl-methanone]",5.52
14,"CC(C)c1ccc(CN2CCC(C(=O)c3ncco3)CC2)cc1 [Example 86, [1-(4-Isopropyl-benzyl)-piperidin-4-yl]-oxazol-2-yl-methanone]",6.96
15,"O=C(c1ncco1)C1CCN(Cc2ccc3c(c2)OCO3)CC1 [Example 15, (1-Benzo[1,3]dioxol-5-ylmethyl-piperidin-4-yl)-oxazol-2-yl-methanone]",6.95

# Biological target: T2, Rat FAAH (Rattus norvegicus, UniProt P97612)
# T2 construct: expressed in transfected cells
# T2 sequence (P97612 1-579): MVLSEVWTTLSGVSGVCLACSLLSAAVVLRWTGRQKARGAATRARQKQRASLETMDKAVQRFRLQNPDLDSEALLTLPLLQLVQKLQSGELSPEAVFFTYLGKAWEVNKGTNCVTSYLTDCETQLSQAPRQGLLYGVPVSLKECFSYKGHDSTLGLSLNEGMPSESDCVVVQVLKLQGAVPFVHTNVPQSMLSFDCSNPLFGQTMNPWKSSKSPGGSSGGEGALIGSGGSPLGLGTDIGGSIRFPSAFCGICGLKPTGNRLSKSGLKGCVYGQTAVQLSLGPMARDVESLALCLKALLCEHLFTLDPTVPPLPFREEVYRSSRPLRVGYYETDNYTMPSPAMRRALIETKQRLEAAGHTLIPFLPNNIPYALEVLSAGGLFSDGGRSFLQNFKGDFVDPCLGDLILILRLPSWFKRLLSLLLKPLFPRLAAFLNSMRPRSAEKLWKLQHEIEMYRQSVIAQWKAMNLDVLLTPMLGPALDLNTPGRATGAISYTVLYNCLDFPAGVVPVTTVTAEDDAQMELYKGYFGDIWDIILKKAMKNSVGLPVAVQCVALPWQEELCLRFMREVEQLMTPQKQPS
# Test: Assay Method 2: FAAH assay, 3H-anandamide hydrolysis in cell homogenate
# Type: biochemical
# Details: transfected SK-N-MC cell homogenate, 80 nM 3H-AEA, 1 h rt, > = solubility limit or highest concentration tested
# In short: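 Homogenate of SK-N-MC cells stably transfected with rat FAAH cDNA (G418-selected clones) incubated with compound and 80 nM final [3H]-anandamide for 1 h. Released [3H]-ethanolamine separated on activated charcoal filters by centrifugation and counted by scintillation. ">" values mark solubility limit or top concentration tested.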
row,Compound,pIC50
1,"O=C(c1ncco1)C1CCN(S(=O)(=O)c2ccc3ccccc3c2)CC1 [Example 1, [1-(Naphthalene-2-sulfonyl)-piperidin-4-yl]-oxazol-2-yl-methanone]",6.00
2,"O=C(c1ncco1)C1CCN(Cc2ccc3ccc(Cl)cc3n2)CC1 [Example 76, [1-(7-Chloro-quinolin-2-ylmethyl)-piperidin-4-yl]-oxazol-2-yl-methanone]",8.10
3,"Cc1cccc(CN2CCC(C(=O)c3ncco3)CC2)n1 [Example 83, [1-(6-Methyl-pyridin-2-ylmethyl)-piperidin-4-yl]-oxazol-2-yl-methanone]",5.52
4,"O=C(c1ncco1)C1CCN(Cc2ccc(F)c(F)c2)CC1 [Example 38, [1-(3,4-Difluoro-benzyl)-piperidin-4-yl]-oxazol-2-yl-methanone]",7.12
5,"O=C(c1ncco1)C1CCN(Cc2ccc(Cl)c(Cl)c2)CC1 [Example 44, [1-(3,4-Dichloro-benzyl)-piperidin-4-yl]-oxazol-2-yl-methanone]",8.30
6,"O=C(c1ncco1)C1CCN(Cc2ccc(OC(F)(F)F)cc2)CC1 [Example 36, Oxazol-2-yl-[1-(4-trifluoromethoxy-benzyl)-piperidin-4-yl]-methanone]",7.40
7,"O=C(c1ncco1)C1CCN(Cc2ccccc2)CC1 [Example 89, (1-Benzyl-piperidin-4-yl)-oxazol-2-yl-methanone]",5.15
8,"O=C(c1ncco1)C1CCN(Cc2ccc3cccnc3n2)CC1 [Example 41, (1-[1,8]Naphthyridin-2-ylmethyl-piperidin-4-yl)-oxazol-2-yl-methanone]",5.76
9,"O=C(c1ncco1)C1CCN(Cc2cccc(Oc3ccccc3)c2)CC1 [Example 56, Oxazol-2-yl-[1-(3-phenoxy-benzyl)-piperidin-4-yl]-methanone]",6.88
10,"Cc1ccc2cc(CN3CCC(C(=O)c4ncco4)CC3)c(Cl)nc2c1 [Example 69, [1-(2-Chloro-7-methyl-quinolin-3-ylmethyl)-piperidin-4-yl]-oxazol-2-yl-methanone]",6.33
11,"COc1ccc(C(=O)N2CCC(C(=O)c3ncco3)CC2)cc1 [Example 9, [1-(4-Methoxy-benzoyl)-piperidin-4-yl]-oxazol-2-yl-methanone]",< 5.00
12,"O=C(c1ncco1)C1CCN(Cc2ccc3cccc(O)c3n2)CC1 [Example 79, [1-(8-Hydroxy-quinolin-2-ylmethyl)-piperidin-4-yl]-oxazol-2-yl-methanone]",7.40
13,"O=C(c1ncco1)C1CCN(Cc2cccc(F)c2)CC1 [Example 31, [1-(3-Fluoro-benzyl)-piperidin-4-yl]-oxazol-2-yl-methanone]",5.85
14,"O=C(c1ncco1)C1CCN(Cc2ccc(Br)cc2F)CC1 [Example 27, [1-(4-Bromo-2-fluoro-benzyl)-piperidin-4-yl]-oxazol-2-yl-methanone]",7.12
15,"O=C(c1ncco1)C1CCN(Cc2ccccn2)CC1 [Example 60, Oxazol-2-yl-(1-pyridin-2-ylmethyl-piperidin-4-yl)-methanone]",< 5.00
16,"O=C(c1ncco1)C1CCN(C(=O)c2ccc3ccccc3c2)CC1 [Example 10, [1-(Naphthalene-2-carbonyl)-piperidin-4-yl]-oxazol-2-yl-methanone]",6.46

row,Compound,pIC50
1,"O=C(c1ncco1)C1CCN(Cc2ccc(Br)c(Br)c2)CC1 [Example 87, [1-(3,4-Dibromo-benzyl)-piperidin-4-yl]-oxazol-2-yl-methanone]",8.70
2,"O=C(c1ncco1)C1CCN(Cc2ccc3cc[nH]c3c2)CC1 [Example 45, [1-(1H-Indol-6-ylmethyl)-piperidin-4-yl]-oxazol-2-yl-methanone]",5.80
3,"Cc1ccc(CN2CCC(C(=O)c3ncco3)CC2)cc1 [Example 64, [1-(4-Methyl-benzyl)-piperidin-4-yl]-oxazol-2-yl-methanone]",6.32
4,"O=C(c1ncco1)C1CCN(Cc2cc3ccccc3o2)CC1 [Example 55, (1-Benzofuran-2-ylmethyl-piperidin-4-yl)-oxazol-2-yl-methanone]",6.98
5,"Cc1cccc(CN2CCC(C(=O)c3ncco3)CC2)c1 [Example 65, [1-(3-Methyl-benzyl)-piperidin-4-yl]-oxazol-2-yl-methanone]",6.01
6,"CN(C)c1nc2ccccc2cc1CN1CCC(C(=O)c2ncco2)CC1 [Example 72, [1-(2-Dimethylamino-quinolin-3-ylmethyl)-piperidin-4-yl]-oxazol-2-yl-methanone]",7.42
7,"O=C(c1ncco1)C1CCN(Cc2ccc(F)cc2)CC1 [Example 30, [1-(4-Fluoro-benzyl)-piperidin-4-yl]-oxazol-2-yl-methanone]",6.06
8,"CC(c1cccc(C(F)(F)F)c1)N1CCC(C(=O)c2ncco2)CC1 (centres unmarked) [Example 91, Oxazol-2-yl-{1-[1-(3-trifluoromethyl-phenyl)-ethyl]-piperidin-4-yl}-methanone]",6.43
9,"O=C(c1ncco1)C1CCN(S(=O)(=O)c2cccc(Cl)c2)CC1 [Example 5, [1-(3-Chloro-benzenesulfonyl)-Diperidin-4-yl]-oxazol-2-yl-methanone]",5.10
10,"CC(C)Oc1ccc(CN2CCC(C(=O)c3ncco3)CC2)cc1 [Example 23, [1-(4-Isopropoxy-benzyl)-piperidin-4-yl]-oxazol-2-yl-methanone]",< 5.00
11,"Cn1c(CN2CCC(C(=O)c3ncco3)CC2)cc2ccccc21 [Example 50, [1-(1-Methyl-1H-indol-2-ylmethyl)-piperidin-4-yl]-oxazol-2-yl-methanone]",8.10
12,"Cn1ccc2ccc(CN3CCC(C(=O)c4ncco4)CC3)cc21 [Example 40, [1-(1-Methyl-1H-indol-6-ylmethyl)-piperidin-4-yl]-oxazol-2-yl-methanone]",6.41
13,"COc1ccc(CN2CCC(C(=O)c3ncco3)CC2)cc1OC [Example 43, [1-(3,4-Dimethoxy-benzyl)-piperidin-4-yl]-oxazol-2-yl-methanone]",5.22
14,"CC(C)c1ccc(CN2CCC(C(=O)c3ncco3)CC2)cc1 [Example 86, [1-(4-Isopropyl-benzyl)-piperidin-4-yl]-oxazol-2-yl-methanone]",6.77
15,"O=C(c1ncco1)C1CCN(Cc2ccc3c(c2)OCO3)CC1 [Example 15, (1-Benzo[1,3]dioxol-5-ylmethyl-piperidin-4-yl)-oxazol-2-yl-methanone]",6.24
